Where two headings read alike, the source gives them in different places.
Experiments:
hGSTP1-1 = target: T1, hGSTP1-1 (Homo sapiens, UniProt P09211); assay: initial rates of reaction with hGSTP1-1 (substrate kinetics); format: biochemical; details: pH 6.5, [GSH]=1 mM, 25° C.; estimated
T1 construct: purchased Sigma Chemical Company; host or cells: human placenta
Procedure: Initial rates of reaction of 1a and 1b with hGSTP1-1 were determined from reciprocal plots of initial velocities (ΔOD235/min), versus [substrate] in buffered solution at pH 6.5, with [GSH]=1 mM (25° C.). Under those conditions, the enzyme-catalyzed GSH addition became rate determining (<0.01 units of transferase in the assay cuvettes).

[1] = system: murine and human tumors in culture; details: range of different murine and human tumors in culture; read-out: IC50 antitumor activity; cited from earlier work
human erythrocyte GlxI [2] = target: T2, human erythrocyte GlxI (Homo sapiens, UniProt Q04760); details: competitive; previously reported; read-out: dissociation constant Ki; cited from earlier work
T2 construct: Kinetic studies with human erythrocyte GlxI; from tissue; host or cells: human erythrocytes
T2 sequence (Q04760 2-184 limits assumed): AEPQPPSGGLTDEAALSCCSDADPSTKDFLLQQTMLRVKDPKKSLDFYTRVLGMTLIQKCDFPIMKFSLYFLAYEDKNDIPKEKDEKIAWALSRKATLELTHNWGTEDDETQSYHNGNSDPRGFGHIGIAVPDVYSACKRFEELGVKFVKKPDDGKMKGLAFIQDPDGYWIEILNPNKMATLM

human erythrocyte GlxI [3] = target: T2, human erythrocyte GlxI; assay: kinetic studies with human erythrocyte GlxI (competitive inhibition); format: biochemical; details: sodium phosphate buffer, pH 7.0, 25° C., read-out: dissociation constant Ki
Procedure: In each kinetic run, the concentration of free GSH was maintained at 0.2 mM by varying the total concentration of GSH and methylglyoxal on the basis of the dissociation constant of the hemithioacetal (Kdiss=2.2 mM). Conditions: 50 mM phosphate buffer, pH 7.0, 25° C.
To investigate the mechanism of formation of 2b, the nonenzymatic reaction of 1b with GSH was monitored spectrophotometrically, and followed a simple first-order decay (FIG. 2, trace A). No intermediate species was detectable. However, in the presence of human placental glutathione transferase (GSTP 1-1) (Predominantly the pi or P1-1 isoform, purchased from Sigma Chemical Company. Salts and free GSH were removed by ultrafiltration. Units of transferase activity were determined using 1-chloro-2,4-dinitrobenzene as substrate (Mannervik, B.; Danielson, U. H. CRC Critical Reviews in Biochemistry 1988, 23, 283-337). The reaction rate profile conformed to a double exponential decay, composed of a rapid, enzyme-dependent, initial phase involving 1b followed by a slower enzyme-independent first-order phase (FIG. 2, traces B and C).

T1 sequence (P09211 2-210 limits assumed): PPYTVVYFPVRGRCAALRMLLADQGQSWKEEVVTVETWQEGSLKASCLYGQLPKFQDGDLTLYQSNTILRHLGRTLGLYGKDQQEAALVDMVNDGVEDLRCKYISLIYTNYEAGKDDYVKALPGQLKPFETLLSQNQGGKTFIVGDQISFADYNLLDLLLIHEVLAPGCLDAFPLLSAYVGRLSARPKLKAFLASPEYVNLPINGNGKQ

For `C/C=C/C(=O)OCC1=C[C@@H](O)[C@@H](O)[C@@H](O)C1=O` [Compound 1a, 2-crotonyloxymethyl-(4R, 5R, 6R)-4,5,6-trihydroxy-2-cyclohexenone], the “kcat/Km, fold lower than that of 1b” value (hGSTP1-1) is given as ~8.3 fold and the IC50 [1] is given as 3 to 44 µM.

For `NC(CCC(=O)NC(CSCC1=CC(O)C(O)C(O)C1=O)C(=O)NCC(=O)O)C(=O)O` (stereo not shown) [Compound 2a], the Ki (human erythrocyte GlxI [2]) is given as 183 ± 6 µM.

Compound `N[C@@H](CCC(=O)N[C@@H](CSCC1=CCCCC1=O)C(=O)NCC(=O)O)C(=O)O` [Compound 2b] has a Ki (human erythrocyte GlxI [3]) of 107 ± 0.1 µM.

Source: US7569711B2, “Enone cancer therapeutics” (Cornell Univeristy, priority 2002, dated 2009)
